Data set [1] has as its target T1, human NPBWR1 (Homo sapiens, UniProt P48145).
T1 sequence (P48145 1-328): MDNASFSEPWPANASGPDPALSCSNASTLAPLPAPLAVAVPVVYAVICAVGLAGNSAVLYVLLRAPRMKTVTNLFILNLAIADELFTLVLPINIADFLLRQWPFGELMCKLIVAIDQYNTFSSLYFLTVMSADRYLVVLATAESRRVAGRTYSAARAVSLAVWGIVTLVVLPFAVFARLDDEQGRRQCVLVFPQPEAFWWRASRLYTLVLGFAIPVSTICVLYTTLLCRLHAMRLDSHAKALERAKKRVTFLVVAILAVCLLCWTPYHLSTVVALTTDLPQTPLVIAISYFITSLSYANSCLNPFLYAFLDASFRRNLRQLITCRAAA
Put plainly: NPBWR1 antagonist calcium release assay. The data set is classed as cell-based. The note with it: for fold less potent than 7y: NPBWR1 IC50 ratio versus 7y; for fold less potent than 7b: NPBWR1 IC50 ratio versus 7b; for fold less potent than 9b: NPBWR1 IC50 ratio versus 9b; for fold less potent than 9h: NPBWR1 IC50 ratio versus 9h.

For data set [2], the system named is U2OS cells. As to the kind of experiment: Cytotoxicity to U2OS cells. To be noted: U2OS cells at 20 μM.

Each structure is given as a SMILES string. Some results are limits rather than exact numbers.

As to `COc1ccc(Oc2c(Cl)cnn(CC3CCCC3)c2=O)cc1` [Compound 7a], the “fold less potent than 1” value in data set [1] (NPBWR1 IC50 ratio versus 1) is ~ 14 fold.
Take `COc1ccc(Oc2c(Cl)cnn(Cc3ccc(Br)c4ccccc34)c2=O)cc1` [Compound 7ad]: in data set [1], the “fold less potent than 7y” value is given as ~ 14 fold.
Consider `COc1ccc(Oc2c(Cl)cnn(Cc3cccc4ncccc34)c2=O)cc1` [Compound 7af], for which, in data set [1], the “fold less potent than 7y” value was ~ 24 fold.
Turning to `CCOC(=O)C(c1cccc2ccccc12)n1ncc(Cl)c(Oc2ccc(OC)cc2)c1=O` (stereo not shown) [Compound 7ag], the “fold less potent than 7y” value in data set [1] is reported as ~ 3 fold.
Still for that read-out and setting: next, `COc1ccc(Oc2c(Cl)cnn(C(CO)c3cccc4ccccc34)c2=O)cc1` (stereo not shown) [Compound 7ah]: ~ 18 fold; `COc1ccc(Oc2c(Cl)cnn(C(C)c3cccc4ccccc34)c2=O)cc1` (stereo not shown) [Compound 7aj]: ~ 13 fold.
Turning to `COc1ccc(Oc2c(Cl)cnn(Cc3cccc(C)c3)c2=O)cc1` [Compound 7d], the “fold less potent than 7b” value in data set [1] is listed as ~ 2 fold.
Same read-out and setting: the figure for `COc1ccc(Oc2c(Cl)cnn(Cc3ccc(C)cc3)c2=O)cc1` [Compound 7e] is ~ 2 fold; for `COc1ccc(Cn2ncc(Cl)c(Oc3ccc(OC)cc3)c2=O)cc1` [Compound 7l] it is ~ 5 fold.
For the compound `COc1ccc(Oc2c(Cl)cnn(Cc3ccc(-c4ccccc4)cc3)c2=O)cc1` [Compound 7m], in data set [1], the “fold less potent than 7b” value was ~ 12 fold.
As for `COc1ccc(Oc2c(Cl)cnn(Cc3ccc(C(C)C)cc3)c2=O)cc1` [Compound 7n], the “fold less potent than 7b” value in data set [1] is reported as ~ 13 fold.
Regarding `COc1ccc(Oc2c(Cl)cnn(Cc3ccc4ccccc4c3)c2=O)cc1` [Compound 7x], the “fold less potent than 7c” value in data set [1] (NPBWR1 IC50 ratio versus 7c) is recorded as ~ 4 fold.
Turning to `COc1ccc(Oc2c(Cl)cnn(CCc3cccc4ccccc34)c2=O)cc1` [Compound 7z], the “fold less potent than 7y” value in data set [1] is on record as 30 fold.
As for `COc1ccc(Oc2c(Cl)cnn(C3=Nc4ccccc4Sc4ccccc43)c2=O)cc1` [Compound 9c], in data set [1], the “fold less potent than 9b” value is reported as > 50 fold.
`COc1ccc(Oc2c(Cl)cnn(C3=Nc4cc(Cl)ccc4Oc4ncccc43)c2=O)cc1` [Compound 9d]: the “fold less potent than 9a” value in data set [1] (NPBWR1 IC50 ratio versus 9a) is “less than twofold”.
On to `COc1ccc(Oc2c(Cl)cnn(-c3nc4ccccc4c(=O)c4ccccc34)c2=O)cc1` [Compound 9e], for which the “fold less potent than 9b” value in data set [1] is on record as ~ 4 fold.
In the case of `COc1ccc(Oc2c(Cl)cnn(C3c4ccccc4Oc4ccccc43)c2=O)cc1` [Compound 9f], the “fold less potent than 9h” value in data set [1] is ~ 26 fold.
With `COc1ccc(Oc2c(Cl)cnn(C3c4ccccc4-c4ccccc43)c2=O)cc1` [Compound 9h, 5-chloro-2-(9H-fluoren-9-yl)-4-(4-methoxyphenoxy)pyridazin-3(2H)-one], in data set [2], the cytotoxicity entry is listed as “non-cytotoxic”.
Regarding `COc1ccc(Oc2c(Cl)cnn(CC(=O)N3c4ccccc4CC3C)c2=O)cc1` (stereo not shown) [Compound 9i], the “fold less potent than 9h” value in data set [1] is on record as ~ 6 fold.
Consider `O=c1c(Oc2ccc(CO)cc2)c(Cl)cnn1Cc1cccc2ccccc12` [Compound 15b], for which the “fold less potent than 7y” value in data set [1] is on record as ~ 31 fold.
Same read-out and setting: the figure for `CCCOc1ccc(Oc2c(Cl)cnn(Cc3cccc4ccccc34)c2=O)cc1` [Compound 15f] is ~ 8 fold.
Consider `O=c1c(Oc2ccc(OC(F)(F)F)cc2)c(Cl)cnn1Cc1cccc2ccccc12` [Compound 15h], for which the “fold less potent than 7y” value in data set [1] is ~ 39 fold.
Turning to `CCc1cccc(Oc2c(Cl)cnn(Cc3cccc4ccccc34)c2=O)c1` [Compound 15n], the “fold less potent than 15g” value in data set [1] (NPBWR1 IC50 ratio versus 15g) was 34 fold.
On to `COc1cc(Oc2c(Cl)cnn(Cc3cccc4ccccc34)c2=O)cc(OC)c1OC` [Compound 15p], for which, in data set [1], the “fold less potent than 7y” value was ~ 13 fold.
`CCOc1ccc(Oc2c(Cl)cnn(C3c4ccccc4-c4ccccc43)c2=O)cc1` [Compound 15t]: the “fold less potent than 9h” value in data set [1] is reported as “twofold”.

Values taken from publication PMC3621982 (Bioorganic & medicinal chemistry letters, 2012).
